Key:
[1] = system: STZ and HFD/STZ diabetic rats; experiment: Lens epithelium changes in diabetic SD rats; format: in vivo, Sprague-Dawley rat; details: STZ rat model and HFD/STZ rat model
Experimental: A rat model of diabetes was established by combination of 6-week HFD and low dose of STZ (30 mg/kg) injection or a single high dose of STZ (65 mg/kg) in SD rats. See generally, K. Srinivasan, B. Viswanad, Lydia Asrat, C. L. Kaul and P. Ramarao, Combination of high-fat diet-fed and low-dose streptozotocin-treated rat: A model for type 2 diabetes and pharmacological screening, Pharmacological Research, 52(4): 313-320, 2005. Rats of the same batch fed with normal chow (NRC) were used as a control.
The effect of the aromatic cationic peptides on lens epithelium in the SD rat model was investigated. Administration of D-Arg-2′,6′-Dmt-Lys-Phe-NH2 reduced epithelial cellular changes in both STZ rat model (FIG. 8) and HFD/STZ rat model (FIG. 9).

[2] = system: trabecular meshwork cells from non-diseased individuals (HTM); experiment: LDH cytotoxicity assay, HTM cells; format: cell-based, human
From the text: In this Example, the effects of the aromatic-cationic peptides of the invention were compared between trabecular meshwork cells from POAG patients (GTM) and trabecular meshwork cells from non-diseased individuals (HTM). Methods useful in the studies of the present invention have been described. See generally, He Y, Ge J, Tombran-Tink J., Mitochondrial defects and dysfunction in calcium regulation in glaucomatous trabecular meshwork cells. Invest Ophthalmol Vis Sci. 2008, 49(11):4912-22; He Y, Leung K W, Zhang Y H, Duan S, Zhong X F, Jiang R Z, Peng Z, Tombran-Tink J, Ge J. Mitochondrial complex I defect induces ROS release and degeneration in trabecular meshwork cells of POAG patients: protection by antioxidants. Invest Ophthalmol Vis Sci. 2008, 49(4):1447-58. […]
To assess whether D-Arg-2′,6′-Dmt-Lys-Phe-NH2 had cytotoxic effects of HTM or GTM cells, various concentrations of D-Arg-2′,6′-Dmt-Lys-Phe-NH2 were administered to cells and the cytotoxicity was measured using an LDH assay. […] The assay quantitatively measures the stable, cytosolic, lactate dehydrogenase (LDH) enzyme, which is released from damaged cells. The released LDH is measured with a coupled enzymatic reaction that results in the conversion of a tetrazolium salt (iodonitrotetrazolium (INT)) into a red color formazan by diaphorase. […] The LDH activity is determined as NADH oxidation or INT reduction over a defined time period.

GTM cells = experiment: Intracellular ROS production, acute H2O2 injury, FACS, GTM cells; format: cell-based, human; details: n=3
From the text: The percentage of intracellular ROS production compared to GTM control in GTM H2O2, D-Arg-2′,6′-Dmt-Lys-Phe-NH2 10^−6M, D-Arg-2′,6′-Dmt-Lys-Phe-NH2 10^−7M, D-Arg-2′,6′-Dmt-Lys-Phe-NH2 10^−8M groups were 146.0±2.27%, 84.5±8.75%, 102.0±5.69%, 133.0±5.17% respectively (n=3); the HTM groups were 153.0±3.46%, 79±2.39%, 91.8±3.49%, 129.0±8.24% respectively (n=4). P<0.001 GTM and HTM H2O2 Group compared to control; *** means P<0.001 compared to GTM H2O2 group; ▴ ▴ ▴ Means P<0.001 compared to HTM H2O2 group; ▴ ▴ means P<0.01 compared to HTM H2O2 group.

iHTM cells = experiment: MMP decline, sustained oxidative injury by H2O2, iHTM cells; format: cell-based, human; details: then 200 μM H2O2 24 h
Experimental: The effects of D-Arg-2′,6′-Dmt-Lys-Phe-NH2 on sustained oxidative injury of GTM and HTM cells was examined. Cells were pre-treated with 10^−6, 10^−7, 10^−8M of D-Arg-2′,6′-Dmt-Lys-Phe-NH2 for 1 h, and then incubated with 200 μM H2O2 for 24 h to investigate the protective effect of D-Arg-2′,6′-Dmt-Lys-Phe-NH2 in sustained oxidative stress.

With D-Arg-2′,6′-Dmt-Lys-Phe-NH2 the “epithelial cellular changes of the lens epithelium” value [1] was “reduced”, the cytotoxicity ([2]; 10^−4M) was “no cytotoxicity” and the “viability (LDH assay)” value ([2]; various concentrations) was “does not affect the viability”. For the same substance, the “percentage of intracellular ROS production compared to GTM control” value (“percentage” for short) (GTM cells; 10^−6M) was 84.5±8.75%, the “percentage” value (GTM cells; 10^−7M) was 102.0±5.69% and the “percentage” value (GTM cells; 10^−8M) was 133.0±5.17%. For the same substance, the “MMP Decline” value (iHTM cells; 0.01 μM pre-treatment 1 h) was −58.24 ± 2.62 %, the “MMP Decline” value (iHTM cells; 0.1 μM pre-treatment 1 h) was −53.24 ± 2.52 % and the “MMP Decline” value (iHTM cells; 1 μM pre-treatment 1 h) was −44.99 ± 2.19 %.
